Experimental data reported in US12697328B2, “Methods for treating metastasis with cathepsin C inhibitors” (Shanghai Institute of Nutrition and Health, Chinese Academy …, priority 2020, dated 2026).

Key:
[1] = molecular target: T1, membrane-bound PR3 (Homo sapiens, UniProt P24158); experiment: Membrane-bound PR3 activity of neutrophils cultured with CM of SCP28 cells overexpressing CTSC; assay type: cell-based; details: Sivelestat 10 μM, Alvelestat 10 μM, CTSGi 20 μM, FIG. 7D
T1 construct: endogenous in cells; host or cells: human peripheral-blood neutrophils (whole-cell suspension)
T1 sequence (P24158 28-248): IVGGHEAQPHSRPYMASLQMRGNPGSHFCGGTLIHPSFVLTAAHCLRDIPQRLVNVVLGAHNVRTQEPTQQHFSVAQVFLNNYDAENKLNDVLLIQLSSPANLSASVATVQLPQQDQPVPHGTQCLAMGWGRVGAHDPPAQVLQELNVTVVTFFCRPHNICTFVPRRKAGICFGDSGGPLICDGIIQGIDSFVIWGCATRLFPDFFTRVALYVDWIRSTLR
Method: The procedure of enzyme activity assays were conducted as previously reported (Korkmaz et aL, “Neutrophil proteinase 3 and dipeptidyl peptidase I (cathepsin C) as pharmacological targets in granulomatosis with polyangiitis (Wegener granulomatosis),” Semin. Immunopathol. 35:411-421 (2008)). The PR3 or NE enzymatic activity was quantified by detecting the rate of hydrolysis of the PR3-specific substrate (Abz)-VADnorVADRQ-(EDDnp) or NE specific substrate (Abz)-APEEIMRRQ-(EDDnp) by cell suspension or free enzymes. To analyze membrane-bound PR3 activity, neutrophils were cultured in cancer cell CM or non-conditioned medium, and treated with DMSO or various inhibitors, including Sivelestat (10 μM), Alvelestat (10 μM) and CTSGi (20 μM) for 30-45 min at 37° C. Then, cells were suspended in activity buffer (5×10^6 per ml, PBS, 4 mM EGTA, pH 7.4) with 15 μM of the PR3-specific substrate, and the kinetic of hydrolysis was followed by measuring the fluorescence at λex=320 nm and λem=420 nm. For activation of PR3 in isolated plasma membrane fraction, recombinant human CTSC (1071-CY, R&D) was activated according to the manufacturer's instruction. […] The activity of free PR3 and NE were measured in the assay buffer (50 mM Tris, 750 mM NaCl, pH 7.4) with 15 μM specific substrates by recording the fluorescence at λex=320 nm and λem=420 nm. […]

[2] = system: murine neutrophils; experiment: Reactive oxygen species (ROS) analysis of neutrophils pre-treated with 4T07 conditioned medium; assay type: cell-based; details: 4T07 CM with CTSC overexpressed, inhibitors 10 μM, FIGS. 8C, 8E
Method: To measure the ROS levels, neutrophils were cultured in cancer cell CM or non-conditioned medium, and treated with DMSO or various inhibitors, including Sivelestat (10 μM), BAY11-7082 (10 μM) and SB203580 (10 μM) for 1 h at 37° C. Cells were then harvested and resuspended in assay buffer (PBS, 4 mM EGTA, pH 7.4, containing 10 μM CM-H2DCFDA, Invitrogen), incubated for 15 min at 37° C. in dark, washed with pre-chilled PBS, followed by FACS analysis within 30 min.
The release of reactive oxygen species (ROS) by neutrophils is known to induce NET formation. […] Commum. 6, 6673 (2015).
ROS analysis of murine neutrophils pre-treated with 4T07 conditioned medium show increased ROS production results from CTSC overexpression (FIG. 8E).

[3] = system: pancreatic cancer cells KP4; experiment: NET-promoted tumor sphere formation, pancreatic cancer; assay type: cell-based; details: neutrophil medium, CM with or without brensocatib, FIG. 11O
Method: To test the therapeutic effects of brensocatib in different cancer types in vitro, the ability of brensocatib to inhibit NET-promoted tumor sphere formation is investigated. The neutrophils are cultured with conditioned medium from tumor cells of colon cancer, liver cancer, lung cancer, gastric cancer and pancreatic cancer with or without brensocatib treatment to activate NETosis, and then the neutrophil medium was used in tumor sphere formation of these cancer cells to analyze the effect of neutrophil medium to facilitate tumor cell growth. The amount of tumorsphere in each sample is then determined by imaging.

[4] = system: liver cancer cells HUH7; experiment: Mouse xenograft, liver tumor cells by spleen injection; assay type: in vivo; details: nude mice
Method: (§1) A series of mouse xenograft studies are conducted by injecting liver and pancreatic tumor cells into nude mice by spleen injection. Then the mice are treated by brensocatib, and the growth of the tumors in liver is observed.

[5] = system: pancreatic cancer cells KP4; experiment: Mouse xenograft, pancreatic tumor cells by spleen injection (liver metastasis); assay type: in vivo; details: nude mice, FIG. 12C
Method: as §1

CC(C)(C)C(=O)Oc1ccc(S(=O)(=O)Nc2ccccc2C(=O)NCC(=O)O)cc1 [Silvelestat]
upregulated PR3 activity resulting from CTSC overexpression [1]: significantly reduces | ROS production / ROS levels [2]: blocks

Cn1c(=O)oc2ccc(-c3ccc(C[C@@H](C#N)NC(=O)[C@@H]4CNCCCO4)cc3)cc21 [brensocatib, (2S)—N-{(1S)-1-cyano-2-[4-(3-methyl-2-oxo-2,3-dihydro-1,3-benzoxazol-5-yl)phenyl]ethyl}-1,4-oxazepane-2-carboxamide]
NET-promoted tumor sphere formation (in vitro tumor growth) [3]: inhibit in vitro tumor growth | formation of liver surface nodules ([4]; spleen injection of HUH7, FIG. 12B): suppresses | tumor growth of liver cancer cells HUH7 in liver ([4]; spleen injection, FIG. 12A): significantly inhibits tumor growth | metastatic growth of pancreatic cancer cells KP4 in liver [5]: significantly inhibits
